Laboratory results from patent US9120770B2, “Substituted pyridine and pyrazine compounds as PDE4 inhibitors” (DART NEUROSCIENCE (CAYMAN) LTD., priority 2013, dated 2015).

Target: PDE4D3 (Homo sapiens, UniProt Q08499)
Sequence (Q08499 1-673 isoform Q08499-2): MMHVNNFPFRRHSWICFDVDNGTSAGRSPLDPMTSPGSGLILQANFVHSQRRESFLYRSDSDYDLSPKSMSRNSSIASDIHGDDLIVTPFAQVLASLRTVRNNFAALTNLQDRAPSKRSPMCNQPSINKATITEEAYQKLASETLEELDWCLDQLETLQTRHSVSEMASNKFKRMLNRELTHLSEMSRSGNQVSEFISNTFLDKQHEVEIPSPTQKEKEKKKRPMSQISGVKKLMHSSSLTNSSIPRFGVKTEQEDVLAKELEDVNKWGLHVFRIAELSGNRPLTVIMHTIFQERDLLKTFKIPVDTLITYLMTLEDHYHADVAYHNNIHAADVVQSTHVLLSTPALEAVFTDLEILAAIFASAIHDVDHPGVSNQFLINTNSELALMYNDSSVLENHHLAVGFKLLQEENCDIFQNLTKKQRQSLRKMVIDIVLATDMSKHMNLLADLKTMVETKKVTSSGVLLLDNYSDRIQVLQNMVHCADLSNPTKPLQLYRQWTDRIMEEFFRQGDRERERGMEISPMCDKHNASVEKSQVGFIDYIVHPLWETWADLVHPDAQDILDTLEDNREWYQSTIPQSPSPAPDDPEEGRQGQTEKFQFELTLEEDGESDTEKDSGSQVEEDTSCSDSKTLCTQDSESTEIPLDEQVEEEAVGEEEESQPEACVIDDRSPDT

EC50 | Structure (SMILES)
100 to 1000 nM | CCOc1ncc(Cn2cc(C(F)F)nn2)cc1-c1cccc(OC(F)F)c1 [Example 269, 3-[3-(Difluoromethoxy)phenyl]-5-{[4-(difluoromethyl)-1H-1,2,3-triazol-1-yl]methyl}-2-ethoxypyridine]
< 100 nM | COc1ncc(Cc2cnc(N)nc2)nc1-c1cccc(Cl)c1 [Example 87, 5-{[6-(3-Chlorophenyl)-5-methoxypyrazin-2-yl]methyl}pyrimidin-2-amine]
< 100 nM | CCOc1ncc(Cn2cnc(N)n2)cc1-c1ccnc(OC(F)F)c1 [Example 230, 1-({5-[2-(Difluoromethoxy)pyridin-4-yl]-6-ethoxypyridin-3-yl}methyl)-1H-1,2,4-triazol-3-amine]
100 to 1000 nM | COc1ncc(Cc2cnc(N(C)C)nc2)cc1-c1cccc(Cl)c1 [Example 83, 5-{[5-(3-Chlorophenyl)-6-methoxypyridin-3-yl]methyl}-N,N-dimethylpyrimidin-2-amine]
100 to 1000 nM | NC(=O)c1ncc(Cc2cnc(OC(F)F)c(-c3cccc(Cl)c3)c2)cn1 [Example 117, 5-{[5-(3-Chlorophenyl)-6-(difluoromethoxy)pyridin-3-yl]methyl}pyrimidine-2-carboxamide]
100 to 1000 nM | CCCOc1ccc(Cc2cnc(OC(F)F)c(-c3cccc(Cl)c3)c2)cn1 [Example 51, 3-(3-Chlorophenyl)-2-(difluoromethoxy)-5-[(6-propoxypyridin-3-yl)methyl]pyridine]
100 to 1000 nM | CCOc1cccc(-c2cc(Cn3cnc(CF)n3)cnc2OC(F)F)c1 [Example 255, 2-(Difluoromethoxy)-3-(3-ethoxyphenyl)-5-{[3-(fluoromethyl)-1H-1,2,4-triazol-1-yl]methyl}pyridine]
100 to 1000 nM | OCc1ncn(Cc2cnc(OC(F)F)c(-c3cccc(Cl)c3)c2)n1 [Example 200, (1-{[5-(3-Chlorophenyl)-6-(difluoromethoxy)pyridin-3-yl]methyl}-1H-1,2,4-triazol-3-yl)methanol]
1000 to 10000 nM | N#Cc1ncc(Cc2cnc(OC(F)F)c(-c3cccc(Cl)c3)c2)cn1 [Example 35, 5-{[5-(3-Chlorophenyl)-6-(difluoromethoxy)pyridin-3-yl]methyl}pyrimidine-2-carbonitrile]
100 to 1000 nM | COc1ncc(Cc2cnc(C)nc2)cc1-c1cccc(Cl)c1 [Example 75, 5-{[5-(3-Chlorophenyl)-6-methoxypyridin-3-yl]methyl}-2-methylpyrimidine]
100 to 1000 nM | CCOc1ncc(Cn2ncnc2C(F)(F)F)nc1-c1cccc(OC(F)F)c1 [Example 188, 3-[3-(Difluoromethoxy)phenyl]-2-ethoxy-5-{[5-(trifluoromethyl)-1H-1,2,4-triazol-1-yl]methyl}pyrazine]
< 100 nM | COc1ncc(Cn2ccnn2)cc1-c1cccc(Cl)c1 [Example 262, 3-(3-Chlorophenyl)-2-methoxy-5-(1H-1,2,3-triazol-1-ylmethyl)pyridine]
100 to 1000 nM | COc1ncc(Cc2ccc(F)cc2)cc1-c1cccc(Cl)c1 [Example 88, 3-(3-Chlorophenyl)-5-[(4-fluorophenyl)methyl]-2-methoxypyridine]
100 to 1000 nM | COc1ncc(Cn2cnc(N)n2)cc1-c1cccc(Cl)c1 [Example 218, 1-{[5-(3-Chlorophenyl)-6-methoxypyridin-3-yl]methyl}-1H-1,2,4-triazol-3-amine]
1000 to 10000 nM | COc1ncc(Cn2cncn2)cc1-c1cnn(C)c1 [Example 248, 2-Methoxy-3-(1-methyl-1H-pyrazol-4-yl)-5-(1H-1,2,4-triazol-1-ylmethyl)pyridine]
< 100 nM | CCOc1ncc(Cn2cnc(N)n2)cc1-c1cccc(OC(F)F)c1 [Example 226, 1-({5-[3-(Difluoromethoxy)phenyl]-6-ethoxypyridin-3-yl}methyl)-1H-1,2,4-triazol-3-amine]
100 to 1000 nM | COc1cccc(-c2cc(Cn3cnc(N)n3)cnc2OC(F)F)c1 [Example 227, 1-{[6-(Difluoromethoxy)-5-(3-methoxyphenyl)pyridin-3-yl]methyl}-1H-1,2,4-triazol-3-amine]
100 to 1000 nM | Nc1ncn(Cc2cnc(OC(F)F)c(-c3ccnc(OC(F)F)c3)c2)n1 [Example 231, 1-{[6-(Difluoromethoxy)-5-[2-(difluoromethoxy)pyridin-4-yl]pyridin-3-yl]methyl}-1H-1,2,4-triazol-3-amine]
100 to 1000 nM | CCOc1ncc(Cc2cnc(C#N)nc2)nc1-c1cccc(Cl)c1 [Example 108, 5-{[6-(3-Chlorophenyl)-5-ethoxypyrazin-2-yl]methyl}pyrimidine-2-carbonitrile]
100 to 1000 nM | COc1ncc(Cn2cc(C)cn2)cc1-c1cccc(Cl)c1 [Example 179, 3-(3-Chlorophenyl)-2-methoxy-5-[(4-methyl-1H-pyrazol-1-yl)methyl]pyridine]
100 to 1000 nM | COc1ncc(Cc2ccnc(N)c2)cc1-c1cccc(Cl)c1 [Example 60, 4-{[5-(3-Chlorophenyl)-6-methoxypyridin-3-yl]methyl}pyridin-2-amine]
100 to 1000 nM | COc1ncc(Cn2cncn2)cc1-c1ccnc(C)c1 [Example 7, 2-Methoxy-3-(2-methylpyridin-4-yl)-5-(1H-1,2,4-triazol-1-ylmethyl)pyridine]

EC50 | Structure (SMILES)
100 to 1000 nM | COc1ncc(Cc2cnc(NC(C)=O)nc2)cc1-c1cccc(Cl)c1 [Example 44, N-(5-[{5-(3-Chlorophenyl)-6-methoxypyridin-3-yl]methyl}pyrimidin-2-yl)acetamide]
1000 to 10000 nM | COc1ncc(Cn2cc([N+](=O)[O-])cn2)nc1-c1cccc(Cl)c1 [Example 181, 3-(3-Chlorophenyl)-2-methoxy-5-[(4-nitro-1H-pyrazol-1-yl)methyl]pyrazine]
< 100 nM | COc1ncc(Cn2cncn2)cc1-c1cccc(Cl)c1 [Example 134, 3-(3-Chlorophenyl)-2-methoxy-5-(1H-1,2,4-triazol-1-ylmethyl)pyridine]
1000 to 10000 nM | COc1ncc(C(c2ccc(F)cc2)N(C)C)cc1-c1cccc(Cl)c1 (centres unmarked) [Example 19, {[5-(3-Chlorophenyl)-6-methoxypyridin-3-yl](4-fluorophenyl)methyl}dimethylamine]
1000 to 10000 nM | CCOC(=O)c1cnn(Cc2cnc(OC)c(-c3cccc(Cl)c3)c2)c1 [Example 169, Ethyl 1-{[5-(3-chlorophenyl)-6-methoxypyridin-3-yl]methyl}-1H-pyrazole-4-carboxylate]
100 to 1000 nM | CCOc1ncc(Cn2cc(CO)nn2)nc1-c1cccc(Cl)c1 [Example 268, (1-{[6-(3-Chlorophenyl)-5-ethoxypyrazin-2-yl]methyl}-1H-1,2,3-triazol-4-yl)methanol]
100 to 1000 nM | COc1ncc(C(O)c2ccc(F)cc2)cc1-c1cccc(Cl)c1 (centres unmarked) [Example 14, [5-(3-Chlorophenyl)-6-methoxypyridin-3-yl](4-fluorophenyl)methanol]
100 to 1000 nM | CNc1ncn(Cc2cnc(OC(F)F)c(-c3cccc(Cl)c3)c2)n1 [Example 238, 1-{[5-(3-Chlorophenyl)-6-(difluoromethoxy)pyridin-3-yl]methyl}-N-methyl 1H-1,2,4-triazol-3-amine]
1000 to 10000 nM | COc1ncc(Cc2ccc(=O)n(C)c2)cc1-c1cccc(Cl)c1 [Example 52, 5-{[5-(3-Chlorophenyl)-6-methoxypyridin-3-yl]methyl}-1-methyl-1,2-dihydropyridin-2-one]
< 100 nM | COc1ncc(Cc2cnc(N)nc2)cc1-c1ccnc(OC(F)F)c1 [Example 47, 5-({5-[2-(Difluoromethoxy)pyridin-4-yl]-6-methoxypyridin-3-yl}methyl)pyrimidin-2-amine]
100 to 1000 nM | COc1ncc(Cc2ccc(C(F)(F)F)nc2)cc1-c1cccc(Cl)c1 [Example 49, 3-(3-Chlorophenyl)-2-methoxy-{[6-(trifluoromethyl)pyridin-3-yl]methyl}pyridine]
100 to 1000 nM | COc1ncc(Cn2cncn2)cc1-c1ccncc1 [Example 171, 2-Methoxy-3-(pyridin-4-yl)-5-(1H-1,2,4-triazol-1-ylmethyl)pyridine]
100 to 1000 nM | FC(F)Oc1ncc(Cn2cnc(C(F)F)n2)cc1-c1cccc(Cl)c1 [Example 259, 3-(3-Chlorophenyl)-2-(difluoromethoxy)-5-{[3-(difluoromethyl)-1H-1,2,4-triazol-1-yl]methyl}pyridine]
1000 to 10000 nM | COc1ncc(Cc2ccnc(C#N)c2)cc1-c1cccc(Cl)c1 [Example 62, 4-{[5-(3-Chlorophenyl)-6-methoxypyridin-3-yl]methyl}pyridine-2-carbonitrile]
1000 to 10000 nM | NC(=O)c1cn(Cc2cnc(OC(F)F)c(-c3cccc(Cl)c3)c2)cn1 [Example 198, 1-{[5-(3-Chlorophenyl)-6-(difluoromethoxy)pyridin-3-yl]methyl}-1H-imidazole-4-carboxamide]
< 100 nM | OCc1cn(Cc2cnc(OC(F)F)c(-c3cccc(Cl)c3)c2)cn1 [Example 274, (1-{[5-(3-Chlorophenyl)-6-(difluoromethoxy)pyridin-3-yl]methyl}-1H-imidazol-4-yl)methanol]
< 100 nM | CNc1ncc(Cc2cnc(OC(F)F)c(-c3cccc(Cl)c3)c2)cn1 [Example 93, 5-{[5-(3-Chlorophenyl)-6-(difluoromethoxy)pyridin-3-yl]methyl}-N-methylpyrimidin-2-amine]
100 to 1000 nM | FC(F)Oc1ncc(Cn2cnnn2)cc1-c1cccc(Cl)c1 [Example 161, 3-(3-Chlorophenyl)-2-(difluoromethoxy)-5-(1H-1,2,3,4-tetrazol-1-ylmethyl)pyridine]
100 to 1000 nM | COc1ncc(Cc2ccc(C(C)(C)O)cc2)cc1-c1cccc(Cl)c1 [Example 250, 2-(4-{[5-(3-Chlorophenyl)-6-methoxypyridin-3-yl]methyl}phenyl)propan-2-ol]
< 100 nM | COc1ncc(Cc2cnc(N)nc2)cc1-c1cccc(Cl)c1 [Example 25, 5-{[5-(3-Chlorophenyl)-6-methoxypyridin-3-yl]methyl}pyrimidin-2-amine]
< 100 nM | COc1ncc(Cc2cnc(C#N)nc2)nc1-c1cccc(OC(F)F)c1 [Example 107, 5-({6-[3-(Difluoromethoxy)phenyl]-5-methoxypyrazin-2-yl}methyl)pyrimidine-2-carbonitrile]
< 100 nM | CCOc1ncc(Cc2cnc(N)nc2)nc1-c1cccc(Cl)c1 [Example 105, 5-{[6-(3-Chlorophenyl)-5-ethoxypyrazin-2-yl]methyl}pyrimidin-2-amine]
